Laboratory results reported in paper PMC10458458, “Characterization of Anticancer Effects of the Analogs of DJ4, a Novel Selective Inhibitor of ROCK and MRCK Kinases” (Pharmaceuticals, 2023).

Key:
MDA-MB-231 = test: MTT cell growth assay, 48 h; assay type: cell-based, human; conditions: for IC50: Homo sapiens, MDA-MB-231, 48 h, 2000 cells/well, ±SE, read-out: IC50 from MTT assays
Experimental: However, as the concentration increased from 2.5 µM onwards, the effect was reversed. Similarly, DJ-Morpholine decreased the cell growth by ~30% at 0.6215 µM, while the effect remained saturated as the concentration increased. This trend was also observed in A549 lung cancer and A375M melanoma cells.
Figure 7 DJ4 analogs reduce cell growth in melanoma, breast, and lung cancer cells. MTT assay was performed to evaluate the effect of DJ4 analogs on cell growth after 48 h of treatment. IC50 values were calculated with nonlinear least squares regression curve fit by GraphPad prism. […] The error bars indicate SD from triplicates of the experiment.
The cytotoxic effect of DJ4 was studied in H1299, H226, A549, H522, H23, and H460 non-small cell lung cancer cells. The cells were seeded into 96-well plates with confluence ([…]). The cells were further treated with DMSO or DJ4 for 72 h. To study the effects of analogs, A549, A375M, and MDA-MB-231 cells were plated with low density (2000 cells/well) in a 96-well plate and grown overnight at 37 °C (with 5% CO2). Cells were treated with the analogs at the concentration of 0–10 µM for 48 h. At the end of the treatment period, cells were incubated with a tetrazolium dye MTT (3-(4,5-dimethylthiazol-2-yl)-2,5-diphenyltetrazolium bromide) reagent (Sigma) at 37 °C for 3 h to develop formazan crystals. The media was siphoned off and crystals were dissolved in DMSO and mixed gently on rocker for 5 min. Absorbance was read at 570 nm and 630 nm (background) wavelength. IC50 values were calculated from non-linear regression curve fit by using GraphPad Prism 5.0 software.

SF-539 = test: NCI-60 screen (SRB); assay type: cell-based, human; conditions: 10 µM, 48 h; for percent cell growth: SF-539 (CNS Cancer), negative = cell death vs time zero
Excerpt: (§1) The selected active compounds were screened at NCI, as a part of In Vitro Cell Line Screening Project (IVCLSP), for their effect on cell growth in 60 different cancer cell lines. The 60 human cancer cell line panel included leukemia, melanoma, non-small cell lung cancer, colon, central nervous system (CNS), ovarian, renal, prostate, and breast cancer cell lines. The detailed procedure and applications of NCI-60 cell line screening can be found at https://dtp.cancer.gov/discovery_development/nci-60/default.htm (accessed on 9 January 2023). Briefly, cells were plated in 96-well plates and incubated for 24 h. One set of cells was fixed with trichloroacetic acid at time 0 h (Tz), and SRB (sulphorhodamine B) assays were performed to quantify the cells. The remaining set of cells were treated with 10 µM single concentration of each compound and incubated for 48 h (Te) after which the cells were fixed, and the SRB assays were performed. Data are presented as percent growth relative to the control as 100% according to the following calculations:
(§2) When Te >/= Tz. Growth(%)=Te−Tz/C−Tz∗100 and when Te < Tz. (1) Growth(%)=Te−Tz/Tz∗100
(§3) Values between 0–100 indicate cell growth, zero (0) indicates no cell growth, values < 0 indicate cell death.

MCF7 = test: NCI-60 screen (SRB); assay type: cell-based, human; conditions: MCF7 (Breast Cancer), 10 µM, 48 h; negative = cell death vs time zero
Excerpt: as §1, §2, §3

DU-145 = test: NCI-60 screen (SRB); assay type: cell-based, human; conditions: DU-145 (Prostate Cancer), 10 µM, 48 h; negative = cell death vs time zero
Excerpt: as §1, §2, §3

HT29 = test: NCI-60 screen (SRB); assay type: cell-based, human; conditions: HT29 (Colon Cancer), 10 µM, 48 h; negative = cell death vs time zero
Excerpt: as §1, §2, §3

MDA-MB-468 = test: NCI-60 screen (SRB); assay type: cell-based, human; conditions: MDA-MB-468 (Breast Cancer), 10 µM, 48 h; negative = cell death vs time zero
Excerpt: as §1, §2, §3

OVCAR-4 = test: NCI-60 screen (SRB); assay type: cell-based, human; conditions: OVCAR-4 (Ovarian Cancer), 10 µM, 48 h; negative = cell death vs time zero
Excerpt: as §1, §2, §3

RXF 393 = test: NCI-60 screen (SRB); assay type: cell-based, human; conditions: RXF 393 (Renal Cancer), 10 µM, 48 h; negative = cell death vs time zero
Excerpt: as §1, §2, §3

CAKI-1 = test: NCI-60 screen (SRB); assay type: cell-based, human; conditions: CAKI-1 (Renal Cancer), 10 µM, 48 h; negative = cell death vs time zero
Excerpt: as §1, §2, §3

KM12 = test: NCI-60 screen (SRB); assay type: cell-based, human; conditions: KM12 (Colon Cancer), 10 µM, 48 h; negative = cell death vs time zero
Excerpt: as §1, §2, §3

UACC-257 = test: NCI-60 screen (SRB); assay type: cell-based, human; conditions: UACC-257 (Melanoma), 10 µM, 48 h; negative = cell death vs time zero
Excerpt: as §1, §2, §3

BT-549 = test: NCI-60 screen (SRB); assay type: cell-based, human; conditions: BT-549 (Breast Cancer), 10 µM, 48 h; negative = cell death vs time zero
Excerpt: as §1, §2, §3

A498 = test: NCI-60 screen (SRB); assay type: cell-based, human; conditions: A498 (Renal Cancer), 10 µM, 48 h; negative = cell death vs time zero
Excerpt: as §1, §2, §3

MDA-MB-435 = test: NCI-60 screen (SRB); assay type: cell-based, human; conditions: MDA-MB-435 (Melanoma), 10 µM, 48 h; negative = cell death vs time zero
Excerpt: as §1, §2, §3

HS 578T = test: NCI-60 screen (SRB); assay type: cell-based, human; conditions: HS 578T (Breast Cancer), 10 µM, 48 h; negative = cell death vs time zero
Excerpt: as §1, §2, §3

PC-3 = test: NCI-60 screen (SRB); assay type: cell-based, human; conditions: PC-3 (Prostate Cancer), 10 µM, 48 h; negative = cell death vs time zero
Excerpt: as §1, §2, §3

TK-10 = test: NCI-60 screen (SRB); assay type: cell-based, human; conditions: TK-10 (Renal Cancer), 10 µM, 48 h; negative = cell death vs time zero
Excerpt: as §1, §2, §3

A549/ATCC = test: NCI-60 screen (SRB); assay type: cell-based, human; conditions: A549/ATCC (Non-Small Cell Lung Cancer), 10 µM, 48 h; negative = cell death vs time zero
Excerpt: as §1, §2, §3

NCI/ADR-RES = test: NCI-60 screen (SRB); assay type: cell-based, human; conditions: for percent cell growth: NCI/ADR-RES (Ovarian Cancer), negative = cell death vs time zero; for percent cell growth / increase in cell number: 10 µM, 48 h; for increase in cell number: NCI/ADR-RES (ovarian)
Excerpt: as §1, §2, §3

[1] = Solubility in 100% DMSO (observation); assay type: physicochemical

Which results are given for `C=CC/N=C1\NC(=O)/C(=C\c2c[nH]c3ncccc23)S1` [DJ-Allyl]?
IC50 (MDA-MB-231): 4.1 ± 1.23 µM; percent cell growth (SF-539): −66.2%; reduction in cell number (SF-539; SF-539 (CNS)): 60%; percent cell growth (MCF7): 3.5%; percent cell growth (DU-145): 12.7%; percent cell growth (HT29): 26.4%; percent cell growth (MDA-MB-468): 1.0%; percent cell growth (OVCAR-4): 34.7%; percent cell growth (RXF 393): −41.3%; percent cell growth (CAKI-1): 30.2%; percent cell growth (KM12): 7.9%; percent cell growth (UACC-257): 9.6%; percent cell growth (BT-549): −29.5%; percent cell growth (A498): −34.5%; percent cell growth (MDA-MB-435): 21.1%; percent cell growth (HS 578T): −15.0%; percent cell growth (PC-3): 12.6%; percent cell growth (TK-10): 1.7%; percent cell growth (A549/ATCC): 13.2%; percent cell growth (NCI/ADR-RES): 42.1%; increase in cell number (NCI/ADR-RES): ~ 40%; solubility in 100% DMSO [1]: much better solubility

What does the source list for `Cl.O=C1NC(=NCCc2ccccc2)SC1=Cc1c[nH]c2ncccc12` (mixture of isomers) [DJ4-HCl]?
percent cell growth (SF-539): −37.2%; percent cell growth (MCF7): 2.0%; percent cell growth (DU-145): 15.3%; percent cell growth (HT29): 27.8%; percent cell growth (MDA-MB-468): −2.1%; percent cell growth (OVCAR-4): 32.3%; percent cell growth (RXF 393): −30.1%; percent cell growth (CAKI-1): 54.8%; percent cell growth (KM12): 9.3%; percent cell growth (UACC-257): −1.7%; percent cell growth (BT-549): 5.3%; percent cell growth (A498): −21.3%; percent cell growth (MDA-MB-435): 18.5%; percent cell growth (HS 578T): 8.8%; percent cell growth (PC-3): 19.2%; percent cell growth (TK-10): 18.8%; percent cell growth (A549/ATCC): 8.1%; percent cell growth (NCI/ADR-RES): 58.4%

What does the source list for `O=C1N/C(=N\CCc2ccccc2)S/C1=C/c1c[nH]c2ncccc12` [DJ4]?
IC50 (MDA-MB-231): 2.3 ± 0.23 µM; percent cell growth (SF-539): 0.4%; percent cell growth (MCF7): 4.0%; percent cell growth (DU-145): 20.7%; percent cell growth (HT29): 30.6%; percent cell growth (MDA-MB-468): −14.5%; percent cell growth (OVCAR-4): 23.8%; percent cell growth (RXF 393): −20.2%; percent cell growth (CAKI-1): 37.4%; percent cell growth (KM12): 13.1%; percent cell growth (UACC-257): 14.6%; percent cell growth (BT-549): −7.9%; percent cell growth (A498): −7.6%; percent cell growth (MDA-MB-435): 21.0%; percent cell growth (HS 578T): 8.8%; percent cell growth (PC-3): 25.9%; percent cell growth (TK-10): 34.2%; percent cell growth (A549/ATCC): 19.1%; IC50 (NCI/ADR-RES; Homo sapiens, NCI/ADR-RES ovarian cancer cell line, NCI-60 screen): > 10 µM; percent cell growth (NCI/ADR-RES): 72.9%; solubility in 100% DMSO [1]: much better solubility

With `O=C1N/C(=N\Cc2ccccc2)S/C1=C/c1c[nH]c2ncccc12` [DJ110] as the molecule, how does the IC50 (MDA-MB-231) read?
The IC50 was 0.65 ± 0.07 µM.

And the “solubility in 100% DMSO” value [1]?
The value was “poor solubility”.

For `O=C1N/C(=N\CCN2CCOCC2)S/C1=C/c1c[nH]c2ncccc12` [DJ-Morpholine], which IC50 (MDA-MB-231) is on record?
Its IC50 is over 10 µM.

What about the “decrease in cell growth” value (MDA-MB-231; MDA-MB-231, 0.6215 µM, 48 h, effect saturated at higher concentrations) of the same molecule?
Its value is ~ 30%.

What about the “solubility in 100% DMSO” value [1] of the same molecule?
The value was “poor solubility”.

What does the source list for `CC/N=C1\NC(=O)/C(=C\c2c[nH]c3ncccc23)S1` [DJE4]?
IC50 (MDA-MB-231): 5.9 ± 1.63 µM; percent cell growth (SF-539): −64.2%; percent cell growth (MCF7): 4.0%; percent cell growth (DU-145): 9.9%; percent cell growth (HT29): 4.3%; percent cell growth (MDA-MB-468): −34.7%; percent cell growth (OVCAR-4): 19.5%; percent cell growth (RXF 393): −39.3%; percent cell growth (CAKI-1): 20.6%; percent cell growth (KM12): 6.2%; percent cell growth (UACC-257): −15.9%; percent cell growth (BT-549): −50.4%; percent cell growth (A498): −54.2%; percent cell growth (MDA-MB-435): −0.8%; percent cell growth (HS 578T): −15.1%; percent cell growth (PC-3): 2.3%; percent cell growth (TK-10): −3.8%; percent cell growth (A549/ATCC): 11.1%; percent cell growth (NCI/ADR-RES): 29.7%; increase in cell number (NCI/ADR-RES): 29%; solubility in 100% DMSO [1]: much better solubility
